Assay results from ChEMBL document CHEMBL4043168, “The design and SAR of a novel series of 2-aminopyridine based LRRK2 inhibitors” (Bioorg Med Chem Lett, 2017).

Tests used:
[1] = target: Mitogen-activated protein kinase 3 (Homo sapiens) (UniProt P27361); assay: Inhibition of Erk1 ATP binding site (DLKPSNLLINTTCDLK) in human PBMC at 1 uM
[2] = target: Mitogen-activated protein kinase 1 (Homo sapiens) (UniProt P28482); assay: Inhibition of Erk2 ATP binding site (DLKPSNLLLNTTCDLK) in human PBMC at 1 uM
[3] = target: Mitogen-activated protein kinase 7 (Homo sapiens) (UniProt Q13164); assay: Inhibition of Erk5 conserved Lys2 (DLKPSNLLVNENCELK) in human PBMC at 1 uM
[4] = target: T1, Interleukin-1 receptor-associated kinase 4 (Homo sapiens) (UniProt Q9NWZ3); assay: Inhibition of IRAK4 conserved Lys2 (DIKSANILLDEAFTAK) in human PBMC at 1 uM
T1 sequence (whole entry): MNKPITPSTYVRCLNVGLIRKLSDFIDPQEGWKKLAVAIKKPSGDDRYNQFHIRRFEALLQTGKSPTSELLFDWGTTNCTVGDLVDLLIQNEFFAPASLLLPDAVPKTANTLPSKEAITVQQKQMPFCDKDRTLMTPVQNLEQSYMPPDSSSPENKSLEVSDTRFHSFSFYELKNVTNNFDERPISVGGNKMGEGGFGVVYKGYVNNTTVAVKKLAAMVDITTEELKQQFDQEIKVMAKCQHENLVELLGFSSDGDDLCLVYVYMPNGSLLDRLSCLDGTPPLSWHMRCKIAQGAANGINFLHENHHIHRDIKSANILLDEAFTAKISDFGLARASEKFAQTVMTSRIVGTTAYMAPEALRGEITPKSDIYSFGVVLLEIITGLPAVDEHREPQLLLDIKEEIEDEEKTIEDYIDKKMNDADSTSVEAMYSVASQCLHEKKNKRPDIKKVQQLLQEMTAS

[5] = target: T2, Serine/threonine-protein kinase 3 (Homo sapiens) (UniProt Q13188); assay: Inhibition of MST2 conserved Lys1 (ESGQVVAIKQVPVESDLQEIIK) in human PBMC at 1 uM
T2 sequence (whole entry): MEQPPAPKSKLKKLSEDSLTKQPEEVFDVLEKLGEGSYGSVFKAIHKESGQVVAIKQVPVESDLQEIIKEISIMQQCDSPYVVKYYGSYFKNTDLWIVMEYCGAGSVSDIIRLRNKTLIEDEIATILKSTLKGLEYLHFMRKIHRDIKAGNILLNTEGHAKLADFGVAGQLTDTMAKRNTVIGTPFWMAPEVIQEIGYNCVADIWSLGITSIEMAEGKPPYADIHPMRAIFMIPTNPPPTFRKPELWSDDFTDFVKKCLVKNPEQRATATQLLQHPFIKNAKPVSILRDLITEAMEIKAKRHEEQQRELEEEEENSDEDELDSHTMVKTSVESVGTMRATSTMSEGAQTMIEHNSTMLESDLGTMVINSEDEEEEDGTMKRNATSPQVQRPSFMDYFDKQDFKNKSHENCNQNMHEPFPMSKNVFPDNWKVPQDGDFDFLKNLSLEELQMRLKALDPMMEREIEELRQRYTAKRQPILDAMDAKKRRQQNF

[6] = target: Serine/threonine-protein kinase SMG1 (Homo sapiens) (UniProt Q96Q15); assay: Inhibition of SMG1 ATP binding site (SYPYLFKGLEDLHLDER) in human PBMC at 1 uM
[7] = target: Myosin light chain kinase, smooth muscle (Homo sapiens) (UniProt Q15746); assay: Inhibition of smMLCK conserved Lys2 (QGIVHLDLKPENIMCVNK) in human PBMC at 1 uM
[8] = target: Serine/threonine-protein kinase WNK1 (Homo sapiens) (UniProt Q9H4A3); assay: Inhibition of Wnk1 activation Loop (IGDLGLATLKR) in human PBMC at 1 uM
[9] = target: Cyclin-dependent kinase 2 (Homo sapiens) (UniProt P24941); assay: Inhibition of CDK2 labeling at conserved Lys1 (LTGEVVALKK) in human PBMC at 0.1 uM
[10] = target: Cyclin-dependent kinase 2 (Homo sapiens) (UniProt P24941); assay: Inhibition of CDK2 labeling at conserved Lys2 (DLKPQNLLINTEGAIK) in human PBMC at 0.1 uM
[11] = target: Serine/threonine-protein kinase Chk2 (Homo sapiens) (UniProt O96017); assay: Inhibition of CHK2 labeling at conserved Lys1 (VAIKIISK) in human PBMC at 0.1 uM
[12] = target: Serine/threonine-protein kinase/endoribonuclease IRE1 (Homo sapiens) (UniProt O75460); assay: Inhibition of IRE1 conserved Lys2 (DLKPHNILISMPNAHGK) in human PBMC at 0.1 uM
[13] = target: Serine/threonine-protein kinase 25 (Homo sapiens) (UniProt O00506); assay: Inhibition of YSK1 conserved Lys2 (DIKAANVLLSEQGDVK) in human PBMC at 0.1 uM
[14] = target: Phosphatidylinositol 5-phosphate 4-kinase type-2 gamma (Homo sapiens) (UniProt Q8TBX8); assay: Inhibition of PIP4K2C ATP binding site (TLVIKEVSSEDIADMHSNLSNYHQYIVK) in human PBMC at 0.1 uM
[15] = target: T3, Serine/threonine-protein kinase ULK3 (Homo sapiens) (UniProt Q6PHR2); assay: Inhibition of ULK3 conserved Lys2 (NISHLDLKPQNILLSSLEKPHLK) in human PBMC at 0.1 uM
T3 sequence (whole entry): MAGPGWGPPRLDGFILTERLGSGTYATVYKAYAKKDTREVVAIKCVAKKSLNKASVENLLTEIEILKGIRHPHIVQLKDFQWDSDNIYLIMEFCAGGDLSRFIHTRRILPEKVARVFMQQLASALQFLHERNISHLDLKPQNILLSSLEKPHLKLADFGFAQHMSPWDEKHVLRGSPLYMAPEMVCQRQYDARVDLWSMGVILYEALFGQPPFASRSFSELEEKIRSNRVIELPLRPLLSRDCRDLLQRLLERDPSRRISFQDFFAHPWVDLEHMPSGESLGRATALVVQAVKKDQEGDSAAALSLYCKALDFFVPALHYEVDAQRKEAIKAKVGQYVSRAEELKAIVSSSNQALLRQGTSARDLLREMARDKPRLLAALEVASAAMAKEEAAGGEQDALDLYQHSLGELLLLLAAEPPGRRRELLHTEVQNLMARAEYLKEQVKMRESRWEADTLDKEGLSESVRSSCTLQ

[16] = target: Mitogen-activated protein kinase kinase kinase 20 (Homo sapiens) (UniProt Q9NYL2); assay: Inhibition of ZAK conserved Lys1 (WISQDKEVAVKK) in human PBMC at 0.1 uM

Phosphatidylinositol 5-phosphate 4-kinase type-2 gamma (Homo sapiens), sequence (Q8TBX8 whole entry): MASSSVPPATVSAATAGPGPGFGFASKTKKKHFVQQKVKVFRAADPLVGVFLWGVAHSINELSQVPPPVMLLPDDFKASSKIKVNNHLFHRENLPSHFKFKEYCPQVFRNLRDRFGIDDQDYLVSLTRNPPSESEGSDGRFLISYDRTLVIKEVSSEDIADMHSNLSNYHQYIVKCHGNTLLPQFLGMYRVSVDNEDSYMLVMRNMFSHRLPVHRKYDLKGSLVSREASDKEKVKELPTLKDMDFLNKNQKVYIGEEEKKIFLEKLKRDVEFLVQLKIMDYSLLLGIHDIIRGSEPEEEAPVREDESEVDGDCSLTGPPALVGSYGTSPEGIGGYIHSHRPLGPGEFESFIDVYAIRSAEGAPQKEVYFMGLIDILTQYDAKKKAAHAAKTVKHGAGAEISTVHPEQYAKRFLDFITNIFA
Serine/threonine-protein kinase WNK1 (Homo sapiens), sequence (Q9H4A3 whole entry, looked up): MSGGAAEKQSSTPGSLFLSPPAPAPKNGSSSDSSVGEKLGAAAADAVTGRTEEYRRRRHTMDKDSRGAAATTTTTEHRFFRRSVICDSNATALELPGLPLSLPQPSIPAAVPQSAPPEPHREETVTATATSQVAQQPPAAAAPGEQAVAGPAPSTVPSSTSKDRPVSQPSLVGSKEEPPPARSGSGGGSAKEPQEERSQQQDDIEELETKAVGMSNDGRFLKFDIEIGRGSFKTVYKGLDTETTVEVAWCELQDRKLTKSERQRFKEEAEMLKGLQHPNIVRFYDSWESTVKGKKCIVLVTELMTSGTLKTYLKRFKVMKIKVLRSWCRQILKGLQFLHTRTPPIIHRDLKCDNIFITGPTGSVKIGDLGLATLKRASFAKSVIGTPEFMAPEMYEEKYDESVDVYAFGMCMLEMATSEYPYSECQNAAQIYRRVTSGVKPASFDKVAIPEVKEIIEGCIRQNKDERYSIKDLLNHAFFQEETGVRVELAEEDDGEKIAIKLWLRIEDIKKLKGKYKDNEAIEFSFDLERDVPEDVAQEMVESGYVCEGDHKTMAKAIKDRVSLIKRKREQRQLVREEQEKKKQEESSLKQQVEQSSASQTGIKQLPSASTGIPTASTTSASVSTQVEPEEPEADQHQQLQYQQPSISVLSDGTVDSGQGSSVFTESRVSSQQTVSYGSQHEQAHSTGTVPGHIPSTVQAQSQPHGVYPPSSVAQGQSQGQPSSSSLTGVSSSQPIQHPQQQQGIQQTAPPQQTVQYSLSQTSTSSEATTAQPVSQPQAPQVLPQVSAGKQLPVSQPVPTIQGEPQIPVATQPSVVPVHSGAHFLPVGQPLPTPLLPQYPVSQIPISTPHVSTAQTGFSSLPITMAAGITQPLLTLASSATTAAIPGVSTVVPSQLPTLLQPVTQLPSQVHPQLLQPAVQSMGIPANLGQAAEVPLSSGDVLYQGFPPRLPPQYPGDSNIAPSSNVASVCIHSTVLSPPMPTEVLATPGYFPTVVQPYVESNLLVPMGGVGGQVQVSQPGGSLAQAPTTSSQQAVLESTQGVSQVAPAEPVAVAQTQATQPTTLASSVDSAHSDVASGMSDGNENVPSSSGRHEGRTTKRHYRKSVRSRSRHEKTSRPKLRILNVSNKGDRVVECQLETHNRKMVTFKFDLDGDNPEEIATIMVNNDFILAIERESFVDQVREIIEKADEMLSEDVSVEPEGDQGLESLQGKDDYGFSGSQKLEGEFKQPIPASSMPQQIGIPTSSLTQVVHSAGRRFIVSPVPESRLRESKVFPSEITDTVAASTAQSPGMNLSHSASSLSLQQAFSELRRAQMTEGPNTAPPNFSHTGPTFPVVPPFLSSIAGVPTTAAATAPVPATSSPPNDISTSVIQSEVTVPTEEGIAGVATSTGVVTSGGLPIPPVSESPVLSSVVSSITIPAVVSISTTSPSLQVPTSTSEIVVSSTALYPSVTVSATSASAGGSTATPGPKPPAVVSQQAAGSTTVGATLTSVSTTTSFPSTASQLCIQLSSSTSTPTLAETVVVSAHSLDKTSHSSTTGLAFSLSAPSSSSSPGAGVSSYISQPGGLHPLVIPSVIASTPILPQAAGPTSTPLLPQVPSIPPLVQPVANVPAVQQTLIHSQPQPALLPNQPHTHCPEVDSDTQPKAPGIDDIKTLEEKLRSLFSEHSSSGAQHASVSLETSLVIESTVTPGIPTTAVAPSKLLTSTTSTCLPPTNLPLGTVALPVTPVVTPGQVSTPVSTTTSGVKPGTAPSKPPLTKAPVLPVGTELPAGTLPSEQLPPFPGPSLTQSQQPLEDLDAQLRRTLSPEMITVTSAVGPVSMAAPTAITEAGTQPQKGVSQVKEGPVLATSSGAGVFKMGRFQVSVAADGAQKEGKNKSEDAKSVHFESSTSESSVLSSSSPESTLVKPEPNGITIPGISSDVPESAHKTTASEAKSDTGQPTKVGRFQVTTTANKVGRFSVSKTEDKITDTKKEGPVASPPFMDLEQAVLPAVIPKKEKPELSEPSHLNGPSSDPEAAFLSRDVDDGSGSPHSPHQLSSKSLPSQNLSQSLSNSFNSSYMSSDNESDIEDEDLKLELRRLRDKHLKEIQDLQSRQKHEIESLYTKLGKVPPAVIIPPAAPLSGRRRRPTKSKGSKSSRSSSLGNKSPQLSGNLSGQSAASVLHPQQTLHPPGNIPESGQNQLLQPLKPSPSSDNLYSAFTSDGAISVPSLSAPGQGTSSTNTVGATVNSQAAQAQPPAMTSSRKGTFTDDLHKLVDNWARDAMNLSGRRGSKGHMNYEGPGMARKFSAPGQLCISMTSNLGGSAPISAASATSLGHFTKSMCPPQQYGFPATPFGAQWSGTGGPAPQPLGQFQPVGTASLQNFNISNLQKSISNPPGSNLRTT
Mitogen-activated protein kinase 3 (Homo sapiens), sequence (P27361 whole entry): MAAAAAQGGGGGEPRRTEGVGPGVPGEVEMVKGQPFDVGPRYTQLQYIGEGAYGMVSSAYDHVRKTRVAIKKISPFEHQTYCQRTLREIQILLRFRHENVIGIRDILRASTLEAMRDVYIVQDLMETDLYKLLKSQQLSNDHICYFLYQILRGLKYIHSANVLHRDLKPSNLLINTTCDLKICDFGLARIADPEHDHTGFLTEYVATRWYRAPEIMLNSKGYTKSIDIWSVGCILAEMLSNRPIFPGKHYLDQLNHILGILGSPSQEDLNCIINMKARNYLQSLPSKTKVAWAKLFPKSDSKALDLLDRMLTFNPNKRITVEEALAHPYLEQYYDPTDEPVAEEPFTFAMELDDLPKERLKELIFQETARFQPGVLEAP
Serine/threonine-protein kinase 25 (Homo sapiens), sequence (O00506 whole entry, looked up): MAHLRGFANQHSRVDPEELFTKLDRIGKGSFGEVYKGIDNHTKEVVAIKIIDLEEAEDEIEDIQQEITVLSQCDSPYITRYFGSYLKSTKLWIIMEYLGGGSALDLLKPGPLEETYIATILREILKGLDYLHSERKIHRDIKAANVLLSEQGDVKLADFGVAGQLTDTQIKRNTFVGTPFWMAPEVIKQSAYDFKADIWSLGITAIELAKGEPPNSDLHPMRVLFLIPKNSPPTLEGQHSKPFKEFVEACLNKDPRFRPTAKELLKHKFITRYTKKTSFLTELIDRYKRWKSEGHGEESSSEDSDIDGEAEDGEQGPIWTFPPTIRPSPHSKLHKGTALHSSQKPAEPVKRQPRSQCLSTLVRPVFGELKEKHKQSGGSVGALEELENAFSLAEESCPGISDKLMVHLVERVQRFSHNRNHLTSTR
Serine/threonine-protein kinase/endoribonuclease IRE1 (Homo sapiens), sequence (O75460 19-977 limits assumed): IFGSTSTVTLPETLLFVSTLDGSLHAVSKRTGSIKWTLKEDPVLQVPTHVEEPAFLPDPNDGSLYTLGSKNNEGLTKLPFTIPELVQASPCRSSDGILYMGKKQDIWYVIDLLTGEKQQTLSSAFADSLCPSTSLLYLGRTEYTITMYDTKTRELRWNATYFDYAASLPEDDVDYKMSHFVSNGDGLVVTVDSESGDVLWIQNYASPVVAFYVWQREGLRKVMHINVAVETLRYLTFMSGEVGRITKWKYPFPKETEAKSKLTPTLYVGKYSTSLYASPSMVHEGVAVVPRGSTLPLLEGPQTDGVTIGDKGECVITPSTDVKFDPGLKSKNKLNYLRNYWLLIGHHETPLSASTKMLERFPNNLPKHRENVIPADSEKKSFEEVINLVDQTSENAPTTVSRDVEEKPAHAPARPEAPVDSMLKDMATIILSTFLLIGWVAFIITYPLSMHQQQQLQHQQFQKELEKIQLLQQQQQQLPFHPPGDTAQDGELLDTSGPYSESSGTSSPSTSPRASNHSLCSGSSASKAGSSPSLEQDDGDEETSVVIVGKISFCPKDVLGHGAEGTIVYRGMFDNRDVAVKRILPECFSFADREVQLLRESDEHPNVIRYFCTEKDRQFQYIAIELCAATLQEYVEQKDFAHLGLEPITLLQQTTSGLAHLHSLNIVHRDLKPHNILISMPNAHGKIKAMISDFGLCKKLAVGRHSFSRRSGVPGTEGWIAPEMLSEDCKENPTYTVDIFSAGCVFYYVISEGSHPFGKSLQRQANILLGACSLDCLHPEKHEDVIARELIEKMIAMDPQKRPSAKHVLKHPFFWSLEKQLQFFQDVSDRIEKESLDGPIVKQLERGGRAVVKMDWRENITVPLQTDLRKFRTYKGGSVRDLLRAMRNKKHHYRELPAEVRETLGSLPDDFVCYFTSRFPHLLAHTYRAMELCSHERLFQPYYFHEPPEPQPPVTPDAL
Mitogen-activated protein kinase 1 (Homo sapiens), sequence (P28482 whole entry): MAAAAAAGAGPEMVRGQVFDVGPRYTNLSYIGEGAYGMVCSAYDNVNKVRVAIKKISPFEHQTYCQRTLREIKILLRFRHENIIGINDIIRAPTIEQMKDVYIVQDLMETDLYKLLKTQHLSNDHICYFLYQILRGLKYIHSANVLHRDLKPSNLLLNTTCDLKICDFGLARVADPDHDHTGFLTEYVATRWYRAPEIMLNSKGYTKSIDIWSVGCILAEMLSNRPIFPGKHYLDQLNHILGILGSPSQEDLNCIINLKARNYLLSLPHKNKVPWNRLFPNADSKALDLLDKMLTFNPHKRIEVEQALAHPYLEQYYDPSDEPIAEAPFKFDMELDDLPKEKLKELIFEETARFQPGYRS

SMILES: CC(C)n1cc(-c2cc(-c3ccc(CN4CCOCC4)cc3)cnc2N)nn1
- inhibition [1]: 4.2%
- inhibition [2]: 14.9%
- inhibition [3]: 30%
- inhibition [4]: -2.5%
- inhibition [5]: -6%
- inhibition [6]: 6.6%
- inhibition [7]: 3.2%
- inhibition [8]: 21.9%
- inhibition [9]: 23.4%
- inhibition [10]: 19.2%
- inhibition [11]: 9.7%
- inhibition [12]: 22.1%
- inhibition [13]: 0.5%
- inhibition [14]: -8.1%
- inhibition [15]: 27.2%
- inhibition [16]: 11.3%
